system: HCV replicon; experiment: Replicon based assay of HCV replication inhibition (NPT ELISA); type: cell-based, Hepatitis C virus; conditions: Hepatitis C virus, Huh-7, 72 h, Table I; Huh-7 HCV replicon-containing cells, three days; read-out: Activity
Description: Compounds claimed herein are tested for the ability to inhibit viral replication of the Hepatitis C replicon in cultured cells in which the HCV replicon construct has been incorporated. The HCV replicon system was described by Bartenschlager, et. al (Science, 285, pp. 110-113 (1999)). The replicon system is predictive of in vivo anti-HCV activity; compounds that are active in humans uniformly evidence activity in the replicon assay.
In this assay HCV replicon containing cells are treated with different concentrations of the test compound to ascertain the ability of the test compound to suppress replication of the HCV replicon. As a positive control, HCV replicon-containing cells are treated with different concentrations of interferon alpha, a known inhibitor of HCV replication. The replicon assay system includes Neomycin Phosphotransferase (NPT) as a component of the replicon itself in order to detect the transcription of replicon gene products in the host cell. Cells in which the HCV replicon is actively replicating have high levels of NPT; the level of NPT is proportional to HCV replication. […] The NPT level of each sample is measured using a captured ELISA.
A protocol for testing compounds for the ability to inhibit viral replication of the Hepatitis C replicon cultured cells in which the replicon construct has been incorporated, follows.
The HCV replicon contains, 5′-3′, the HCV-IRES, the neomycin phosphotransferase (neo) gene, the IRES of encephalomyocarditis virus, which directs translation of HCV sequences NS3 to NS5B, and the 3′-NTR. The sequence of the HCV replicon has been deposited in GenBank (Accession no. AJ242652).
The replicon is transfected into Huh-7 cells using standard methods such as electroporation.
The equipment and materials include, but are not limited to, Huh-7 HCV replicon-containing cells, maintenance media (DMEM (Dulbecco's modified Eagle media) supplemented with 10% FBS, L-glutamine, non-essential amino acids, penicillin (100 units/ml), streptomycin (100 micrograms/ml), and 500 micrograms/ml of Geneticin (G418), screening media (DMEM supplemented with 10% FBS, L-glutamine, non-essential amino acids, penicillin (100 units/ml) and streptomycin (100 micrograms/ml)), 96 well tissue culture plates (flat bottom), 96 well plates (U bottom for drug dilution), Interferon alpha for positive control, fixation reagent (such as methanol: acetone), primary antibody (rabbit anti-NPTII), secondary antibody: Eu-N1l, and enhancement solution.
The cells are then seeded onto 96-well plates at a density of 6000-7500 cells/100 microliters/well (6-7.5×10^5 cells/10 ml/plate). The plates are then incubated at 37° C. in a 5% CO2 incubator.
HCV replicon-containing cells are rinsed with once PBS once; 2 mls of trypsin are then added. Cells are incubated at 37° C. in a 5% CO2 incubator for 3-5 minutes. 10 mls of complete medium is added to stop the reaction. Cells are blown gently, put into a 15 ml tube, and spun at 1200 rpm for four minutes. The trypsin/medium solution is removed and 5 mls of medium (500 ml DMEM (high glucose)) from BRL catalog #12430-054; 50 mls 10% FBS, 5% Geneticin G418 (50 mg/ml, BRL catalog #10131-035), 5 ml MEM non-essential amino acids (100×BRL #11140-050) and 5 ml pen-strep (BRL # 15140-148) is added. The cells and media are mixed carefully
Cells are plated with screening medium (500 ml DMEM (BRL #21063-029), 50 ml FBS (BRL #10082-147) and 5 ml MEM non-essential amino acid (BRL #11140-050) at 6000-7500 cells/100 μl/well of 96 well plate (6-7.5×10^5 cells/10 ml/plate). Plates are placed into 37° C. 5% CO2 incubator overnight.
The following morning, drugs (test compounds or interferon alpha) are diluted in 96 well U bottom plates with media or DMSO/media, depending on the final concentration chosen for screening. Generally for 6 concentrations of each test compounds ranging from 10 micromolar to 0.03 micromolar are applied. […]

SMILES	EC50 [µM]
Fc1ccc(-c2csc(Nc3ccc(Cc4ccccc4)cc3)n2)c(F)c1 [compound 41, N-(4-benzylphenyl)-4-(2,4-difluorophenyl)thiazol-2-amine]	> 10
Clc1ccc(-c2csc(Nc3ccc(Cc4ccccc4)cc3)n2)cc1 [compound 42, N-(4-benzylphenyl)-4-(4-chlorophenyl)thiazol-2-amine]	> 10
Fc1ccc(-c2csc(Nc3ccc(OC(F)(F)F)cc3)n2)cc1 [compound 43, 4-(4-fluorophenyl)-N-(4-(trifluoromethoxy)phenyl)thiazol-2-amine]	> 10
FC(F)(F)Oc1ccc(Nc2nc(-c3ccc(Cl)c(Cl)c3)cs2)cc1 [compound 44, 4-(3,4-dichlorophenyl)-N-(4-(trifluoromethoxy)phenyl)thiazol-2-amine]	> 10
Fc1ccc(-c2csc(Nc3ccc(OC(F)(F)F)cc3)n2)c(F)c1 [compound 45, 4-(2,4-difluorophenyl)-N-(4-(trifluoromethoxy)phenyl)thiazol-2-amine]	> 10
FC(F)(F)Oc1ccc(Nc2nc(-c3ccc(Cl)cc3)cs2)cc1 [compound 46, 4-(4-chlorophenyl)-N-(4-(trifluoromethoxy)phenyl)thiazol-2-amine]	> 10
Fc1ccc(-c2csc(Nc3ccc(Cl)c(Cl)c3)n2)cc1 [compound 47, N-(3,4-dichlorophenyl)-4-(4-fluorophenyl)thiazol-2-amine]	< 1
Clc1ccc(Nc2nc(-c3ccc(Cl)c(Cl)c3)cs2)cc1Cl [compound 48, N,4-bis(3,4-dichlorophenyl)thiazol-2-amine]	< 1
Fc1ccc(-c2csc(Nc3ccc(Cl)c(Cl)c3)n2)c(F)c1 [compound 49, N-(3,4-dichlorophenyl)-4-(2,4-difluorophenyl)thiazol-2-amine]	< 1
Clc1ccc(-c2csc(Nc3ccc(Cl)c(Cl)c3)n2)cc1 [compound 50, N-(3,4-dichlorophenyl)-4-(4-chlorophenyl)thiazol-2-amine]	> 10
N#Cc1ccc(Nc2nc(-c3ccc(F)cc3)cs2)cc1 [compound 51, 4-(4-(4-fluorophenyl)thiazol-2-ylamino)benzonitrile]	> 10
N#Cc1ccc(Nc2nc(-c3ccc(Cl)c(Cl)c3)cs2)cc1 [compound 52, 4-(4-(3,4-dichlorophenyl)thiazol-2-ylamino)benzonitrile]	> 10
N#Cc1ccc(Nc2nc(-c3ccc(F)cc3F)cs2)cc1 [compound 53, 4-(4-(2,4-difluorophenyl)thiazol-2-ylamino)benzonitrile]	> 10
N#Cc1ccc(Nc2nc(-c3ccc(Cl)cc3)cs2)cc1 [compound 54, 4-(4-(4-chlorophenyl)thiazol-2-ylamino)benzonitrile]	> 10
N#Cc1cccc(Nc2nc(-c3ccc(F)cc3)cs2)c1 [compound 55, 3-(4-(4-fluorophenyl)thiazol-2-ylamino)benzonitrile]	> 10
N#Cc1cccc(Nc2nc(-c3ccc(Cl)c(Cl)c3)cs2)c1 [compound 56, 3-(4-(3,4-dichlorophenyl)thiazol-2-ylamino)benzonitrile]	> 10
N#Cc1cccc(Nc2nc(-c3ccc(F)cc3F)cs2)c1 [compound 57, 3-(4-(2,4-difluorophenyl)thiazol-2-ylamino)benzonitrile]	> 10
N#Cc1cccc(Nc2nc(-c3ccc(Cl)cc3)cs2)c1 [compound 58, 3-(4-(4-chlorophenyl)thiazol-2-ylamino)benzonitrile]	> 10
Fc1ccc(-c2csc(Nc3ccc(Cl)c(C(F)(F)F)c3)n2)cc1 [compound 59, N-(4-chloro-3-(trifluoromethyl)phenyl)-4-(4-fluorophenyl)thiazol-2-amine]	< 1
FC(F)(F)c1cc(Nc2nc(-c3ccc(Cl)c(Cl)c3)cs2)ccc1Cl [compound 60, N-(4-chloro-3-(trifluoromethyl)phenyl)-4-(3,4-dichlorophenyl)thiazol-2-amine]	< 1

From patent publication US8088806B2 (Achillion Pharmaceuticals, Inc., priority 2005, dated 2012)
